Patent US20260152501A1, “CYCLIN MODULATOR” (EUBULUS BIOTHERAPEUTICS (HONG KONG) LIMITED, priority 2022, published 2026)

Legend:
Cyclin K = test: Immunohistochemistry (IHC) staining of Cyclin K in HepG2 cells; format: cell-based; details: incubated with compound 2 hours, CCNK antibody
Experimental: Appropriate amount of compounds were added to the cultured cells. The cells were incubated in a tissue culture incubator at 37° C. for 2 hours.
After washing the cultured cells twice with PBS, 100 μL 10% neutral buffered formalin were added and the cells were fixed for 20 minutes.
After washing 3 times with PBS, immunohistochemical staining was performed using CCNK antibody and general two-step detection kit (mouse/rabbit enhanced polymer detection system, PV-9000, Zsbio Inc, Beijing).
Specifically, 100 μL of endogenous peroxidase blocker in the kit was added, cells were incubated at room temperature for 10 minutes; rinsed with PBS buffer for 3 minutes×3 times.
100 μL CCNK antibody 1:5000 dilution was added, and the cells were incubated at 37° C. for 60 minutes; rinsed with PBS buffer for 3 minutes×3 times.
100 μL reaction enhancer was added, and the cells were incubated at 37° C. for 20 minutes; rinsed with PBS buffer for 3 minutes×3 times.
100 μL enhanced enzyme-labeled goat anti-mouse/rabbit IgG polymer was added, and the cells were incubated at 37° C. for 20 minutes; rinsed with PBS buffer for 3 minutes×3 times.
The cells were placed in 75% ethanol, soaked for 3 minutes×2 times; placed in 95% ethanol, soaked for 3 minutes×2 times; after removing excess liquid, placed in anhydrous ethanol, soaked for 3 minutes×3 times; after removing excess liquid, air dried, observed under a microscope and taken pictures after sealing.

HepG2 cells = test: Antiproliferative effect on HepG2 cells; format: cell-based; details: Homo sapiens
Experimental: Reagents: RPMI-1640 medium, McCoy's 5A medium, IMDM medium, MEM medium, L-15 medium, fetal bovine serum, Penicillin-Streptomycin double antibody, trypsin, etc., 2-mercaptoethanol, NEAA, pyruvate, etc.
The test cells were cultured in conventional ways, and the cells should be passed for at least 2 generations before plating.
All cells were subjected to IC50 test for corresponding samples.
The fluorescence intensity of each well was detected using the Alarm blue method, and EC50 was calculated.
IC50 was calculated according to the following formula:
[formula] • wherein, Min, Max and Slope represent the minimum, maximum and slope respectively.

Structure (SMILES) | Cyclin K IHC data of HepG2 cells (Cyclin K) | IC50 (HepG2 cells) [µM]
CC(C)n1cnc2c(NCc3ccc(-c4ccccc4)cc3)nc(NC3CCNCC3)nc21 [UB-016, N6-([1,1′-biphenyl]-4-yl-methyl)-9-isopropyl-N2-(Piperidin-4-yl)-9H-purin-2,6-diamine] | C (93 nM < C <= 278 nM) | 
CC(C)n1cnc2c(NCc3ccc(-c4ccccc4)cc3)nc(N3CCNC[C@H]3C)nc21 [UB-020, (R)-N-([1,1′-biphenyl]-4-ylmethyl)-9-isopropyl-2-(2-methylpiperazin-1-yl)-9H-purin-6-amine] | B (31 nM < B <= 93 nM) | < 0.05
CC(C)n1cnc2c(NCc3ccc(-c4ccccc4)cc3)nc(N3CCNC[C@@H]3C)nc21 [UB-021, (S)-N-([1,1′-biphenyl]-4-ylmethyl)-9-isopropyl-2-(2-methylpiperazin-1-yl)-9H-purin-6-amine] | C (93 nM < C <= 278 nM) | 0.05 to 0.1
CC(C)n1cnc2c(NCc3ccc(-c4ccccc4)cc3)nc(N3CCNC[C@H]3CO)nc21 [UB-022, (S)-(1-(6-(([1,1′-biphenyl]-4-ylmethyl)amino)-9-isopropyl-9H-purin-2-yl)piperazin-2-yl) methanol] | A (A <= 31 nM) | < 0.05
CC(C)n1cnc2c(NCc3ccc(-c4ccccc4)cc3)nc(N3CCNC[C@@H]3CO)nc21 [UB-023, (R)-(1-(6-(([1,1′-biphenyl]-4-ylmethyl)amino)-9-isopropyl-9H-purin-2-yl)piperazin-2-yl) methanol] | C (93 nM < C <= 278 nM) | 0.05 to 0.1
CC(C)n1cnc2c(NCc3ccc(-c4ccccc4)cc3)nc(N3CCNC[C@H]3CCO)nc21 [UB-024, (R)-2-(1-(6-(([1,1′-biphenyl]-4-ylmethyl)amino)-9-isopropyl-9H-purin-2-yl)piperazin-2-yl) ethan-1-ol] | A (A <= 31 nM) | 
CC(C)n1cnc2c(NCc3ccc(-c4ccccc4)cc3)nc(N3CCNC[C@@H]3CCO)nc21 [UB-025, (S)-2-(1-(6-(([1,1′-biphenyl]-4-ylmethyl)amino)-9-isopropyl-9H-purin-2-yl)piperazin-2-yl) ethan-1-ol] | A (A <= 31 nM) | 
CC(C)n1cnc2c(NCc3ccc(-c4ccccc4)cc3)nc(N3CCN[C@@H](C)C3)nc21 [UB-026, (S)-N-([1,1′-biphenyl]-4-ylmethyl)-9-isopropyl-2-(3-methylpiperazin-1-yl)-9H-purin-6-amine] | B (31 nM < B <= 93 nM) | < 0.05
CC(C)n1cnc2c(NCc3ccc(-c4ccccc4)cc3)nc(N3CCN[C@H](C)C3)nc21 [UB-027, (R)-N-([1,1′-biphenyl]-4-ylmethyl)-9-isopropyl-2-(3-methylpiperazin-1-yl)-9H-purin-6-amine] | A (A <= 31 nM) | < 0.05
CC(C)n1cnc2c(NCc3ccc(-c4ccccc4)cc3)nc(N3CCN[C@@H](CO)C3)nc21 [UB-028, (R)-(4-(6-(([1,1′-biphenyl]-4-ylmethyl)amino)-9-isopropyl-9H-purin-2-yl)piperazin-2-yl) methanol] | A (A <= 31 nM) | 
CC(C)n1cnc2c(NCc3ccc(-c4ccccc4)cc3)nc(N3CCN[C@H](CO)C3)nc21 [UB-029, (S)-(4-(6-(([1,1′-biphenyl]-4-ylmethyl)amino)-9-isopropyl-9H-purin-2-yl)piperazin-2-yl) methanol] | B (31 nM < B <= 93 nM) | 
CC(C)n1cnc2c(NCc3ccc(-c4ccccc4)cc3)nc(N3CCN[C@@H](CCO)C3)nc21 [UB-030, (S)-2-(4-(6-(([1,1′-biphenyl]-4-ylmethyl)amino)-9-isopropyl-9H-purin-2-yl)piperazin-2-yl) ethan-1-ol] | B (31 nM < B <= 93 nM) | 
CC(C)n1cnc2c(NCc3ccc(-c4ccccc4)cc3)nc(N3CCN[C@H](CCO)C3)nc21 [UB-031, (R)-2-(4-(6-(([1,1′-biphenyl]-4-ylmethyl)amino)-9-isopropyl-9H-purin-2-yl)piperazin-2-yl) ethan-1-ol] | B (31 nM < B <= 93 nM) | 
CC(C)n1cnc2c(NCc3ccc(-c4ccccc4)cc3)nc(N3C[C@@H](C)N[C@H](C)C3)nc21 [UB-032, N-([1,1′-biphenyl]-4-ylmethyl)-2-((3R,5R)-3,5-dimethylpiperazin-1-yl)-9-isopropyl-9H-purin-6-amine] | D (D > 278 nM) | 
CC(C)n1cnc2c(NCc3ccc(-c4ccccc4)cc3)nc(OC[C@@H]3CNCCN3)nc21 [UB-033, (S)-N-([1,l′-biphenyl]-4-ylmethyl)-9-isopropyl-2-(piperazin-2-ylmethoxy)-9H-purin-6-amine] | C (93 nM < C <= 278 nM) | 0.05 to 0.1
CC(C)n1cnc2c(NCc3ccc(-c4ccccc4)cc3)nc(OC[C@H]3CNCCN3)nc21 [UB-034, (R)-N-([1,1′-biphenyl]-4-ylmethyl)-9-isopropyl-2-(piperazin-2-ylmethoxy)-9H-purin-6-amine] | C (93 nM < C <= 278 nM) | 0.05 to 0.1
CC(C)n1cnc2c(NCc3ccc(-c4ccccc4)cc3)nc(N[C@H]3CCNC3)nc21 [UB-037, (S)-N6-([1,1′-biphenyl]-4-ylmethyl)-9-isopropyl-N2-(pyrrolidin-3-yl)-9H-purin-2,6-diamine] | C (93 nM < C <= 278 nM) | < 0.05
CC(C)n1cnc2c(NCc3ccc(-c4ccccc4)cc3)nc(N[C@@H]3CCNC3)nc21 [UB-038, (R)-N6-([1,1′-biphenyl]-4-ylmethyl)-9-isopropyl-N2-(pyrrolidin-3-yl)-9H-purin-2,6-diamine] | C (93 nM < C <= 278 nM) | < 0.05
CC(C)n1cnc2c(NCc3ccc(-c4ccccc4)cc3)nc(N[C@H]3CC[C@@H](N)C3)nc21 [UB-039, N6-([1,1′-biphenyl]-4-yl-methyl)-N2-((1S,3R)-3-aminocyclopentyl)-9-isopropyl-9H-purin-2,6-diamine] | C (93 nM < C <= 278 nM) | 0.05 to 0.1
CC(C)n1cnc2c(NCc3ccc(-c4ccccc4)cc3)nc(N[C@H]3CC[C@H](N)C3)nc21 [UB-040, N6-([1,1′-biphenyl]-4-yl-methyl)-N2-((1S,3S)-3-aminocyclopentyl)-9-isopropyl-9H-purin-2,6-diamine] | B (31 nM < B <= 93 nM) | < 0.05
CC(C)n1cnc2c(NCc3ccc(-c4ccccc4)cc3)nc(N[C@H]3C[C@@H](N)C3)nc21 [UB-041, N6-([1,1′-biphenyl]-4-yl-methyl)-N2-((1s,3s)-3-aminocyclobutyl)-9-isopropyl-9H-purin-2,6-diamine] | C (93 nM < C <= 278 nM) | < 0.05
CC(C)n1cnc2c(NCc3ccc(-c4ccccc4)c(O)c3)nc(N3CCNCC3)nc21 [UB-042] | B (31 nM < B <= 93 nM) | < 0.05
CC(C)n1cnc2c(NCc3ccc(-c4ccccc4)c(OCCO)c3)nc(N3CCNCC3)nc21 [UB-043, 2-((4-(((9-isopropyl-2-(piperazin-1-yl)-9H-purin-6-yl)amino)methyl)-[1,1′-biphenyl]-2-yl)oxy)ethanol] | D (D > 278 nM) | 0.1 to 0.3
CCCOc1cc(CNc2nc(N3CCNCC3)nc3c2ncn3C(C)C)ccc1-c1ccccc1 [UB-044, 9-isopropyl-2-(piperazin-1-yl)-N-((2-propoxy-[1,1′-biphenyl]-4-yl)methyl)-9H-purin-6-amine] | D (D > 278 nM) | > 0.3
CC(C)n1cnc2c(NCc3ccc(-c4ccccc4)c(OCCCCO)c3)nc(N3CCNCC3)nc21 [UB-045, 4-((4-(((9-isopropyl-2-(piperazin-1-yl)-9H-purin-6-yl)amino)methyl)-[1,1′-biphenyl]-2-yl)oxy)butan-1-ol] | D (D > 278 nM) | > 0.3
CC(C)n1cnc2c(NCc3ccc(-c4ccccc4O)cc3)nc(N3CCNCC3)nc21 [UB-046, 4′-(((9-isopropyl-2-(piperazin-1-yl)-9H-purin-6-yl)amino)methyl)-[1,1′-biphenyl]-2-ol] | D (D > 278 nM) | 0.1 to 0.3
Fc1cccc(-n2cnc3c(NCc4ccc(-c5ccccc5)cc4)nc(N4CCNCC4)nc32)c1 [UB-054, N-([1,1′-biphenyl]-4-ylmethyl)-9-(3-fluorophenyl)-2-(piperazin-1-yl)-9H-purin-6-amine] | D (D > 278 nM) | 
CC(C)n1cnc2c(NCc3ccc(-c4ccccc4)cc3)nc(N3CCNC4(CC4)C3)nc21 [UB-059, N-([1,1′-biphenyl]-4-ylmethyl)-9-isopropyl-2-(4,7-diazaspiro[2.5]octan-7-yl)-9H-purin-6-amine] | B (31 nM < B <= 93 nM) | 
CC(C)n1cnc2c(NCc3ccc(-c4ccccc4)cc3)nc(N3C[C@@H](C)N[C@@H](C)C3)nc21 [UB-060, N-([1,1′-biphenyl]-4-ylmethyl)-2-((3R,5S)-3,5-dimethylpiperazin-1-yl)-9-isopropyl-9H-purin-6-amine] | A (A <= 31 nM) | 
